Patent US8283299B2, “Skin and hand cleaning compositions with hydrophilic emollients” (Evonik Stockhausen GmbH, priority 2007, dated 2012)

Key:
[1] = Determination of the HLB value; format: physicochemical; conditions: 5% strength dispersion/solution in water, visual comparison with emulsifiers of known HLB
Protocol: The HLB value is determined by preparing a 5% strength dispersion/solution of the substance to be tested, here the hydrophilic emollient, in water, and determining the solubility in water. The assessment takes place visually: clouding, solubility, degree of dispersion. The HLB value is ascertained through comparison with solutions of emulsifiers whose HLB value is known.

[2] = cited from earlier work

| Substance | HLB value (ascertained) [1] | HLB value according to manufacturer [2] |
| --- | --- | --- |
| polyglyceryl-3 caprate [TEGOSOFT PC 31] | HLB: 14 | – |
| PEG-7 glyceryl cocoate [Glycerox HE] | – | HLB: 11 |
| polyglyceryl-4 caprate [TEGOSOFT PC 41] | HLB: 16 | – |
